Usually IC50 stands for the midpoint of a concentration-inhibition curve.

IC50 data for 32 molecules are collected here from patent publication US9765018B2, “IDO inhibitors” (BRISTOL-MYERS SQUIBB COMPANY, priority 2013, dated 2017).

The assay addresses IDO (Homo sapiens (Human), UniProt P14902). Briefly: Kynurenine assay in IFN-γ-stimulated Hela cells. Conditions: 20 h, read-out: Hela Kyurenine (IC50). In kind it is cell-based. How it is done: Reagents: Hela cells (ATCC, CCL-2)
IFNg (R&D, 28-IF-100)—resuspend at 10 ug/mL in PBS with 0.1% BSA 30% TCA
Ehrlich reagent (2% w/v p-dimethylaminobenzaldehyde in glacial acetic acid)
Cell Lines and Culture Conditions
Hela cancer cell lines were acquired from the American Type Culture Collection. Cells were maintained in phenol red free-RPMI1640 medium containing high glucose and L-glutamine (Invitrogen) supplemented with 10% fetal bovine serum (FBS; Invitrogen). Cell cultures were incubated at 37° C., 5% CO2, and 100% humidity.
Cell Treatment and Kynurenine Assay
Hela cells were seeded on 96-well plates (40,000 cells per well) and allowed to adhere for 5-6 hours. Cells were then treated with vehicle (DMSO) or with IDO inhibitor at a top dose of 30 μM (3-fold dilution all the way down to 1.5 nM). A final concentration of 100 ng/mL of human recombinant IFN-γ (R&D, 28-IF-100) was immediately added to the cells to stimulate IDO expression. Treated cells were then incubated for 20 hours at 37° C. At the end of the 20 h incubation, reactions were terminated by the addition of 30% TCA to each well. Plates were incubated for 30 minutes at 50° C. to hydrolyze N-formylkynurenine to kynurenine. Cells were centrifuged 10 minutes at 2400 rpm. 100 ul of supernatants were transferred to new 96 flat well plates and mixed with 100 ul Ehrlich reagent. The resulting solution was incubated 10 minutes at RT. Absorbance at 490 nm was read using Spectra Max 384 (Molecular Devices).

Sequence of IDO (P14902 whole entry): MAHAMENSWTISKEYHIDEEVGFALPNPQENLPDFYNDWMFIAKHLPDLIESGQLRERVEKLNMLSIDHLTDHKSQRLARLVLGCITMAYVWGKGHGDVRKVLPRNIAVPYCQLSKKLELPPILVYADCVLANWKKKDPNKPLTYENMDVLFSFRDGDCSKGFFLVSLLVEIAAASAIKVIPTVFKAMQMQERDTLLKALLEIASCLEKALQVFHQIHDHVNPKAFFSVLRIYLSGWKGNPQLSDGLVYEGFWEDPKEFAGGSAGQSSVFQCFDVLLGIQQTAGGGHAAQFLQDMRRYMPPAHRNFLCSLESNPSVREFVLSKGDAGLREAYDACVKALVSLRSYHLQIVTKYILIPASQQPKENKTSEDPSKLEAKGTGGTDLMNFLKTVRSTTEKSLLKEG

In the case of “4′-(2-(tert-butyl)phenoxy)-3′-(3-(4-chlorophenyl)ureido)-4-methoxy-[1,1′-biphenyl]-3-carboxylic acid [Example 106]”, the IC50 is 0.47 µM.

Regarding “4′-(2-(tert-butyl)phenoxy)-3′-(3-(4-fluorophenyl)ureido)-4-methoxy-[1,1′-biphenyl]-3-carboxylic acid [Example 107]”, the IC50 came out at 0.32 µM.

Take `COc1ccc(-c2ccc(O[C@@H]3CCCC[C@H]3C)c(NC(=O)Nc3ccc(C)cc3)c2)cc1C(=O)O` (relative stereo) [Example 134, 4-methoxy-4′-((trans)-2-methylcyclohexyloxy)-3′-(3-p-tolylureido)biphenyl-3-carboxylic acid]: the IC50 came out at 1.39 µM.

On to `COc1ccc(-c2ccc(O[C@@H]3CCCC[C@H]3C)c(NC(=O)Nc3ccccc3C)c2)cc1C(=O)O` (relative stereo) [Example 137, 4-methoxy-4′-((trans)-2-methylcyclohexyloxy)-3′-(3-o-tolylureido)biphenyl-3-carboxylic acid], for which the IC50 was found to be 2.43 µM.

As to `Cc1ccc(NC(=O)Nc2cc(-c3ccccc3-c3nnn[nH]3)ccc2Oc2ccccc2C(C)(C)C)cc1` [Example 4, 1-(4-(2-tert-Butylphenoxy)-2′-(1H-tetrazol-5-yl)biphenyl-3-yl)-3-p-tolylurea], the IC50 was determined as 0.03 µM.

Turning to `Cc1ccc(NC(=O)Nc2cc(-c3ccccc3C(=O)NS(C)(=O)=O)ccc2Oc2ccccc2C(C)(C)C)cc1` [Example 6, 4′-(2-tert-Butylphenoxy)-N-(methylsulfonyl)-3′-(3-p-tolylureido)biphenyl-2-carboxamide], the IC50 was 0.73 µM.

Take `COc1ccc(-c2ccc(Oc3ccccc3C(C)(C)C)c(NC(=O)Nc3ccc(C)cc3)c2)cc1C(=O)NS(C)(=O)=O` [Example 41, 4′-(2-tert-butylphenoxy)-4-methoxy-N-(methylsulfonyl)-3′-(3-p-tolylureido)biphenyl-3-carboxamide]: the IC50 is 0.43 µM.

Consider `COc1ccc(-c2ccc(Oc3ccccc3C(C)(C)C)c(NC(=O)Nc3ccccc3C)c2)cc1C(=O)O` [Example 44, 4′-(2-tert-butylphenoxy)-4-methoxy-3′-(3-o-tolylureido)biphenyl-3-carboxylic acid], for which the IC50 worked out at 0.49 µM.

Take `CCc1ccccc1Oc1ccc(-c2ccc(OC)c(C(=O)O)c2)cc1NC(=O)Nc1ccc(C)cc1` [Example 47, 4′-(2-ethylphenoxy)-4-methoxy-3′-(3-p-tolylureido)biphenyl-3-carboxylic acid]: the IC50 worked out at 0.54 µM.

As to `CCc1ccccc1Oc1ccc(-c2ccc(OC)c(C(=O)O)c2)cc1NC(=O)Nc1ccc(C(F)(F)F)cc1` [Example 48, 4′-(2-ethylphenoxy)-4-methoxy-3′-(3-(4-(trifluoromethyl)phenyl)ureido)biphenyl-3-carboxylic acid], the IC50 was found to be 1.23 µM.

Turning to `COc1ccc(-c2ccc(Oc3ccccc3Cl)c(NC(=O)Nc3cccc(C)c3)c2)cc1C(=O)O` [Example 50, 4′-(2-chlorophenoxy)-4-methoxy-3′-(3-m-tolylureido)biphenyl-3-carboxylic acid], the IC50 stood at 0.9 µM.

`COc1ccc(-c2ccc(Oc3ccccc3Cl)c(NC(=O)Nc3ccc(C)cc3)c2)cc1C(=O)O` [Example 51, 4′-(2-chlorophenoxy)-4-methoxy-3′-(3-p-tolylureido)biphenyl-3-carboxylic acid]: the IC50 amounted to 0.83 µM.

In the case of `COc1ccc(-c2ccc(Oc3ccccc3Cl)c(NC(=O)Nc3ccccc3C(F)(F)F)c2)cc1C(=O)O` [Example 52, 4′-(2-chlorophenoxy)-4-methoxy-3′-(3-(2-(trifluoromethyl)phenyl)ureido)biphenyl-3-carboxylic acid], the IC50 came to 1.27 µM.

In the case of `COc1ccc(-c2ccc(Oc3ccccc3Cl)c(NC(=O)Nc3ccccc3C)c2)cc1C(=O)O` [Example 53, 4′-(2-chlorophenoxy)-4-methoxy-3′-(3-o-tolylureido)biphenyl-3-carboxylic acid], the IC50 is 2.18 µM.

With `CCc1ccccc1Oc1ccc(-c2ccc(OC)c(C(=O)O)c2)cc1NC(=O)Nc1ccccc1Cl` [Example 55, 3′-(3-(2-chlorophenyl)ureido)-4′-(2-ethylphenoxy)-4-methoxybiphenyl-3-carboxylic acid], the IC50 turned out to be 0.11 µM.

For `CCc1ccccc1Oc1ccc(-c2ccc(OC)c(C(=O)O)c2)cc1NC(=O)Nc1ccccc1C` [Example 56, 4′-(2-ethylphenoxy)-4-methoxy-3′-(3-o-tolylureido)biphenyl-3-carboxylic acid], the IC50 was 0.13 µM.

Take `COc1ccc(-c2ccc(Oc3c(C)cccc3C(C)(C)C)c(NC(=O)Nc3ccccc3C)c2)cc1C(=O)O` [Example 59, 4′-(2-tert-butyl-6-methylphenoxy)-4-methoxy-3′-(3-o-tolylureido)biphenyl-3-carboxylic acid]: the IC50 is 0.88 µM.

For `COc1ccc(-c2ccc(Oc3c(C)cccc3C(C)(C)C)c(NC(=O)Nc3ccc(C)cc3)c2)cc1C(=O)O` [Example 61, 4′-(2-tert-butyl-6-methylphenoxy)-4-methoxy-3′-(3-p-tolylureido)biphenyl-3-carboxylic acid], the IC50 worked out at 0.31 µM.

As for `CCc1ccc(NC(=O)Nc2cc(-c3ccc(OC)c(C(=O)O)c3)ccc2Oc2ccccc2C(C)(C)C)cc1` [Example 67, 4′-(2-tert-butylphenoxy)-3′-(3-(4-ethylphenyl)ureido)-4-methoxybiphenyl-3-carboxylic acid], the IC50 turned out to be 0.58 µM.

In the case of `COc1ccccc1Oc1ccc(-c2ccc(OC)c(C(=O)O)c2)cc1NC(=O)Nc1ccccc1Cl` [Example 68, 3′-(3-(2-chlorophenyl)ureido)-4-methoxy-4′-(2-methoxyphenoxy)biphenyl-3-carboxylic acid], the IC50 is 0.49 µM.

With `COc1ccc(-c2ccc(Oc3ccccc3C)c(NC(=O)Nc3cccc(C)c3)c2)cc1C(=O)O` [Example 70, 4-methoxy-4′-(o-tolyloxy)-3′-(3-m-tolylureido)biphenyl-3-carboxylic acid], the IC50 was found to be 0.39 µM.

For the molecule `COc1ccc(-c2ccc(Oc3ccccc3C)c(NC(=O)Nc3ccccc3Cl)c2)cc1C(=O)O` [Example 71, 3′-(3-(2-chlorophenyl)ureido)-4-methoxy-4′-(o-tolyloxy)biphenyl-3-carboxylic acid], the IC50 stood at 0.18 µM.

Regarding `COc1ccc(-c2ccc(Oc3ccccc3C)c(NC(=O)Nc3ccccc3C)c2)cc1C(=O)O` [Example 72, 4-methoxy-4′-(o-tolyloxy)-3′-(3-o-tolylureido)biphenyl-3-carboxylic acid], the IC50 was 0.38 µM.

As to `COc1ccc(-c2ccc(Oc3ccccc3C(C)(C)C)c(NC(=O)Nc3ccccc3)c2)cc1C(=O)O` [Example 78, 4′-(2-(tert-butyl)phenoxy)-4-methoxy-3′-(3-phenylureido)-[1,1′-biphenyl]-3-carboxylic acid], the IC50 worked out at 0.08 µM.

As for `COc1ccc(-c2ccc(Oc3ccccc3C(C)(C)C)c(NC(=O)Nc3c(F)cccc3F)c2)cc1C(=O)O` [Example 80, 4′-(2-(tert-butyl)phenoxy)-3′-(3-(2,6-difluorophenyl)ureido)-4-methoxy-[1,1′-biphenyl]-3-carboxylic acid], the IC50 turned out to be 0.13 µM.

With `COc1ccc(-c2ccc(Oc3ccccc3C(C)(C)C)c(NC(=O)Nc3c(Cl)cccc3Cl)c2)cc1C(=O)O` [Example 82, 4′-(2-(tert-butyl)phenoxy)-3′-(3-(2,6-dichlorophenyl)ureido)-4-methoxy-[1,1′-biphenyl]-3-carboxylic acid], the IC50 was determined as 0.84 µM.

Turning to `COc1ccc(-c2ccc(Oc3ccccc3C(C)(C)C)c(NC(=O)Nc3cccc(F)c3)c2)cc1C(=O)O` [Example 84, 4′-(2-(tert-butyl)phenoxy)-3′-(3-(3-fluorophenyl)ureido)-4-methoxy-[1,1′-biphenyl]-3-carboxylic acid], the IC50 was determined as 0.16 µM.

As for `COc1ccc(-c2ccc(Oc3ccccc3C(C)(C)C)c(NC(=O)Nc3cccc(Cl)c3)c2)cc1C(=O)O` [Example 85, 4′-(2-(tert-butyl)phenoxy)-3′-(3-(3-chlorophenyl)ureido)-4-methoxy-[1,1′-biphenyl]-3-carboxylic acid], the IC50 stood at 0.11 µM.

As to `COc1cccc(NC(=O)Nc2cc(-c3ccc(OC)c(C(=O)O)c3)ccc2Oc2ccccc2C(C)(C)C)c1` [Example 86, 4′-(2-(tert-butyl)phenoxy)-3′-(3-(3-methoxyphenyl)ureido)-4-methoxy-[1,1′-biphenyl]-3-carboxylic acid], the IC50 worked out at 0.23 µM.

On to `COc1ccc(NC(=O)Nc2cc(-c3ccc(OC)c(C(=O)O)c3)ccc2Oc2ccccc2C(C)(C)C)cc1` [Example 87, 4′-(2-(tert-butyl)phenoxy)-3′-(3-(4-methoxyphenyl)ureido)-4-methoxy-[1,1′-biphenyl]-3-carboxylic acid], for which the IC50 came out at 0.28 µM.

For the molecule `COc1ccc(-c2ccc(Oc3ccccc3C(C)(C)C)c(NC(=O)NC(C)(C)C)c2)cc1C(=O)O` [Example 88, 4′-(2-(tert-butyl)phenoxy)-3′-(3-(tert-butyl)ureido)-4-methoxy-[1,1′-biphenyl]-3-carboxylic acid], the IC50 came to 0.13 µM.

Consider `CCCNC(=O)Nc1cc(-c2ccc(OC)c(C(=O)O)c2)ccc1Oc1ccccc1C(C)(C)C` [Example 89, 4′-(2-(tert-butyl)phenoxy)-3′-(3-(n-propyl)ureido)-4-methoxy-[1,1′-biphenyl]-3-carboxylic acid], for which the IC50 was found to be 0.12 µM.
